According to patent US8067456B2 (AEterna Zentaris GmbH, priority 2004, dated 2011):

Tests used:
[1] = tested on: LHRH-stimulated LH secretion from rat pituitary cells; assay: Inhibition of LHRH-induced LH secretion from rat pituitary cells in vitro; assay type: cell-based; conditions: LHRH 10 nM, 3 hours
Procedure: (§1) The LH concentration in cell culture supernatants was measured using the rat luteinizing hormone (rLH) enzyme immunoassay (EIA) system ELISA (RPN 2562) from Amersham Pharmacia Biotech. All other chemicals used were from commercial sources in the highest purity available.
Juvenile male Wistar rats (Harlan Winkelmann, Germany) were sacrificed by decapitation, and the pituitaries were removed and taken up in Hanks' buffer (HBSS) with 0.3% BSA and 10 mM HEPES (pH 7.4). Pituitaries from 20 rats were required to carry out one experiment. The cells of the anterior lobe of the pituitary were separated from the remaining tissue by incubation in Hanks' buffer with 10 mM HEPES (pH 7.4), 0.3% BSA, 1 mg/ml hyaluronidase (type VIII), 1 mg/ml soybean trypsin inhibitor, 10 μg/ml DNAsel and 1 mg/ml papain at 37° C. for 30 minutes A sterile Pasteur pipette was used to disperse the cells, and they were subsequently pelleted by centrifugation. The cells were seeded in a density of 2.5×10^5 cells/well of a collagen-coated 48-well plate (Becton Dickinson) in DMEM medium (Invitrogen Life Technologies, Germany) with 10% fetal calf serum (FCS; Invitrogen Life Technologies, Germany), 10 mill nonessential amino acids and 10 mill Pen/Strep (penicillin/streptomycin).
The medium was changed after incubation at 37° C., 5% CO2 and 95% humidity for 48 h. The medium was replaced by LHRH-containing (10 nM) medium or medium with LHRH (10 nM) and test substance in the concentration indicated (table). After a further incubation for 3 hours, the cell supernatant was harvested and frozen at −20° C. The LH content was determined by means of ELISA in triplicate determination in accordance with the manufacturer's (Amersham Pharmacia Biotech) instructions.
In the following table, “% Inhibition” describes the quotient of LHRH-stimulated LH secretion with (“LH (ng/ml)” and without the addition of the test substance. The values originate from different, independent experiments.

castrated rats = assay: LH concentration suppression in the plasma of castrated rats; assay type: in vivo, rat; conditions: 100 mg/kg oral in Solutol HS15/1,2-propane-diol (3:1)
Procedure: as §1, with “the plasma of castrated rats” for “cell culture supernatants”, “Biotech or of LH RIA-AH R002 rats; from Biocode-Hycel, Liege, Belgium.” for “Biotech.”
10 days before the start of the test, male Sprague Dawley rats (Harlan Winkelmann, Germany) weighing 190-220 g were anesthetized with ether and castrated and provided with a silicone catheter for permanent blood sampling.
At the start of the test, before administration of the substance, blood samples were taken and the LH level determined. The substance was then administered orally in the desired concentration. The number of animals used in each group was 8. At the stated times, further blood samples were taken. The blood was collected in heparinized sample tubes on ice, and the plasma was obtained by centrifugation at 3000 g for 10 minutes. The plasma samples were stored at −20° C. until the LH concentration was measured by ELISA or RIA. The LH concentration was determined by an ELISA or RIA in duplicate determination in accordance with the manufacturer's (Amersham Pharmacia Biotech; Biocode-Hycel) instructions.
All the other data points for each individual animal were calculated as relative concentration compared with the LH concentration before treatment.

[2] = Metabolic stability in human liver microsomes; assay type: in vitro ADME; conditions: 1 μM, 37° C., NADPH
Procedure: (§2) The metabolic stability in relation to liver microsomes (species human, rat) was determined in accordance with the following description: the substances were incubated at a test concentration of 1 […] An HPLC MS/MS method was subsequently used to quantify the unmetabolized amount of starting compound relative to 100%.

LHRH receptor = target: T1, LHRH receptor (Rattus norvegicus, UniProt P30969); assay: LHRH receptor-ligand binding assay (membrane preparations from rat pituitary cells); conditions: competition with 0.05 nM [125I][D-Trp6]-LHRH, 90 min, 4° C., rat pituitary membranes
T1 construct: rat pituitary cells which naturally strongly express the LHRH receptor; from tissue; host or cells: rat pituitary cells (membrane preparation)
T1 sequence (P30969 1-327): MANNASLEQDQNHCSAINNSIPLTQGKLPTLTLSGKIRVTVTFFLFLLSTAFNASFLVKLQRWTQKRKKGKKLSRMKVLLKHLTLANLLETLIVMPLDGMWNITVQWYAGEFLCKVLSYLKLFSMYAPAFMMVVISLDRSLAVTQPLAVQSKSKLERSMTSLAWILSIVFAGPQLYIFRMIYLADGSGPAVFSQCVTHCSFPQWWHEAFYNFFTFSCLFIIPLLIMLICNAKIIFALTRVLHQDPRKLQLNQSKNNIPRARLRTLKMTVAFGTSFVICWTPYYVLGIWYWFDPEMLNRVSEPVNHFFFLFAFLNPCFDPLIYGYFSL
Procedure: Heterologous competition experiments were carried out using membrane preparations from rat pituitary cells which naturally strongly express the LHRH receptor. The ligand used in this case was [^125I][D-Trp^6]-LHRH in a concentration of 0.05 nM. Unlabeled [D-Trp^6]-LHRH was used in a concentration of 1 μM, or the test substance was used in the desired concentration, for competition. After an incubation time of 90 minutes at 4° C., the bound ligand was measured by scintillation (Halmos et al., Proc. Natl. Acad. Sci. USA, 1996, 93, 2398).
The result obtained was the percentage proportion of bound ligand in the presence of the competitor related to the specifically bound proportion of the control (see result for selected compounds in Table 3). EC50 values were calculated by nonlinear regression analysis of the competition plots.

[3] = Metabolic stability in rat liver microsomes; assay type: in vitro ADME; conditions: 1 μM, 37° C., NADPH
Procedure: as §2

recovery at 1 μM [2]: 65%
EC50 (LHRH receptor): 6.9 nM
recovery at 1 μM [3]: 78%
Structure (SMILES): CCC(C)[C@H](NC(=O)OCc1ccccc1)C(=O)N[C@]1(C(=O)N[C@H](C(N)=S)C(C)CC)CCc2[nH]c3c(Cl)cc(Cl)cc3c2C1 (stereo partly drawn) [Compound 7, benzyl {(S)-1-[(R)-6,8-dichloro-3-((S)-2-methyl-1-thiocarbamoylbutylcarbamoyl)-2,3,4,9-tetrahydro-1H-carbazol-3-ylcarbamoyl]-2-methylbutyl}carbamate]
inhibition at 0.033 µM ([1]; Rattus norvegicus, test substance 3.3 × 10^−8 M, read-out: % Inhibition): 83%
inhibition at 0.0033 µM ([1]; Rattus norvegicus, test substance 3.3 × 10^−9 M): 43%
LH (ng/ml) ± SD ([1]; test substance 3.3 × 10^−8 M): 79.9 ± 15.0 ng/mL
LH (ng/ml) ± SD ([1]; test substance 3.3 × 10^−9 M): 194.0 ± 13.2 ng/mL
Relative LH concentration (%) (averages ± SEM compared with the concentration before treatment) (castrated rats; time 0 h): 91.8 ± 19.1%
Relative LH concentration (%) (averages ± SEM compared with the concentration before treatment) (castrated rats; time +4 h): 19.6 ± 8.9%
Relative LH concentration (%) (averages ± SEM compared with the concentration before treatment) (castrated rats; time +6 h): 10.1 ± 3.2%
Relative LH concentration (%) (averages ± SEM compared with the concentration before treatment) (castrated rats; time +24 h): 65.1 ± 13.9%
Relative LH concentration (%) (averages ± SEM compared with the concentration before treatment) (castrated rats; time +48 h): 110.6 ± 33.0%
Relative LH concentration (%) (averages ± SEM compared with the concentration before treatment) (castrated rats; time +72 h): 268.4 ± 93.0%
Relative LH concentration (%) (averages ± SEM compared with the concentration before treatment) (castrated rats; time −2 h (before treatment)): 110.8 ± 12.2%
Relative LH concentration (%) (averages ± SEM compared with the concentration before treatment) (castrated rats; time −4 h (before treatment)): 97.4 ± 15.3%
